Measurements reported in patent US10525060B2, “HCK as a therapeutic target in MYD88 mutated diseases” (Dana-Farber Cancer Institute, Inc., priority 2016, dated 2020).
Like-named read-outs stand apart in the source and are kept apart here.

Tests used:
FYN, SRC, YES = assay: KiNativ profiling in WM cell lines; assay type: binding, Homo sapiens; details: 1 μM
[1] = system: mutated MYD88 expressing WM and ABC DLBCL cell lines; assay: CellTiter-Glo Luminescent cell viability assay; assay type: cell-based
Description: Apoptosis analysis was performed using Annexin V/Propidium iodide staining with the Apoptosis Detection Kit I (BD Pharmingen, San Jose Calif.). Cells (1×10^6/well) were treated in 24 well plates for 18 hours with inhibitors or corresponding controls. A minimum of 10,000 events were acquired using a BD™ FACSCanto II flow cytometer, and analyzed with BD FACS DIVA Software. For WM patient cells, BMMC (2×10^6/well) were treated with inhibitors, and CD19-APC-cy7 antibody (BD Pharmingen) was used with Annexin V antibody to analyze WM cell apoptosis. AlamarBlue® cell viability assay (Life Technologies, Carlsbad Calif.) was used to assess cell death following inducible HCK knockdown. For these experiments, transduced cells (1×10^5/ml) were cultured with tetracycline, and aliquoted every other day on days 1-11. […] Aliquoted plates were read in a SpectraMax M3 plate reader (Molecular Devices, Sunnyvale, Calif.). Relative cell survival was calculated as percentage of fluorescence relative to scrambled control. […] Luminescent measurement was performed using the 2104 Envision® Multilabel Reader (PerkinElmer Inc.).
(§1) We also evaluated tumor cell viability by the CellTiter-Glo® Luminescent cell viability assay, and apoptosis by propidium iodide and Annexin V staining to determine if HCK inhibition contributed to WM cell death.

TMD-8 ABC DLBCL cells = assay: Cell viability of TMD-8 cells transfected with BTK vectors; assay type: cell-based; details: FIG. 8B
LYN [2] = target: T1, LYN (Homo sapiens, UniProt P07948); assay: Kinase active-site inhibition assay (ATP-biotin probe, western blot) in BCWM.1 cells; assay type: binding; parameters: endogenous in cells; host or cells: BCWM.1; details: BCWM.1 WM cells, pre-treated 1 hour, various concentrations
Description: (§2) Cells then washed with PBS twice, and lysed with co-IP buffer (Invitrogen, Grand Island N.Y.). Two mg of protein from lysed cells was then incubated with […] of Pierce Streptavidin Magnetic Beads (Thermo Fisher Scientific, Cambridge Mass.) at 4° C. for 1 hour, then washed with TBST (0.1% Tween-20) thrice, and proteins eluted with SDS-PAGE sample buffer. […] Cells then were lysed and kinases were pulled down with ATP-biotin using Pierce™ Kinase Enrichment Kit (Thermo Fisher Scientific) per manufacturer's instructions. Kinases were eluted with SDS-PAGE sample buffer and detected by western blot.

BTK = target: T2, BTK (Homo sapiens, UniProt Q06187); assay: as above; assay type: binding; details: BCWM.1 WM cells, pre-treated 1 hour, various concentrations
T2 construct: endogenous in cells; host or cells: BCWM.1 (A4); BCWM.1, MWCL-1, TMD-8 (A7)
Description: as §2

SRC = target: T3, SRC (Homo sapiens, UniProt P12931); assay: as above; assay type: binding; details: BCWM.1 WM cells, pre-treated 1 hour, various concentrations
T3 construct: endogenous in cells; host or cells: BCWM.1
Description: as §2

[3] = system: mutated MYD88 cell lines and primary WM cells; assay: Apoptosis by propidium iodide and Annexin V staining; assay type: cell-based; details: 0.5 μM, 18 hours
Description: (§3) Apoptosis analysis was performed using Annexin V/Propidium iodide staining with the Apoptosis Detection Kit I (BD Pharmingen, San Jose Calif.). Cells (1×10^6/well) were treated in 24 well plates for 18 hours with inhibitors or corresponding controls. A minimum of 10,000 events were acquired using a BD™ FACSCanto II flow cytometer, and analyzed with BD FACS DIVA Software. For WM patient cells, BMMC (2×10^6/well) were treated with inhibitors, and CD19-APC-cy7 antibody (BD Pharmingen) was used with Annexin V antibody to analyze WM cell apoptosis. AlamarBlue® cell viability assay (Life Technologies, Carlsbad Calif.) was used to assess cell death following inducible HCK knockdown. For these experiments, transduced cells (1×10^5/ml) were cultured with tetracycline, and aliquoted every other day on days 1-11. AlamarBlue® solution ( 1/10 total volume) was added to cells and incubated for 2 hours. Aliquoted plates were read in a SpectraMax M3 plate reader (Molecular Devices, Sunnyvale, Calif.). Relative cell survival was calculated as percentage of fluorescence relative to scrambled control. The CellTiter-Glo® Luminescent cell viability assay (Promega, Madison Wis.) was used to assess the dose-response of inhibitors. Cells were seeded into 384 well plates with the EL406 Combination Washer Dispenser (BioTek Instruments, Inc.) and inhibitors injected into the cells culture media with the JANUS Automated Workstation (PerkinElmer Inc., Waltham Mass.). Cells were treated with serial diluted inhibitors […] for 72 hours at 37° C. Luminescent measurement was performed using the 2104 Envision® Multilabel Reader (PerkinElmer Inc.).
as §1

[4] = system: MYD88^WT cell lines or healthy donor B-cells; assay: as above; assay type: cell-based; details: data not shown
Description: as §3, §1

HCK (pTyr^411) = target: T4, HCK (pTyr^411) (Homo sapiens, UniProt P08631); assay: PhosFlow analysis of HCK Tyr411 phosphorylation; assay type: cell-based; details: MYD88 L265P WM and ABC DLBCL cell lines and primary WM LPC, 0.5 μM, 30 minutes
T4 construct: endogenous in cells; host or cells: BCWM.1 (A3); BCWM.1, MWCL-1, TMD-8 (A8); WM and ABC DLBCL lines and primary WM cells (A12)
Description: PhosFlow analysis was performed to delineate HCK phosphorylation. Cells were fixed with BD PhosFlow Fix Buffer I at 37° C. for 10 min. Cells were then centrifuged (300×g for 5 min) and washed twice with PhosFlow Perm/Wash Buffer I (BD Pharmingen). […] Following staining, cells were incubated in the dark for 30 min at room temperature, then washed thrice with BD PhosFlow Perm/Wash Buffer I, followed by anti-Rabbit IgG DyLight®-649 secondary antibody (Abcam), and incubated for an additional 20 min. Cells were then washed twice with BD PhosFlow Perm/Wash Buffer I and flow analysis performed using a BD™ FACSCanto II Flow Cytometer.
as §1

BCWM.1 WM cells = assay: Dose dependent tumor cell survival of BCWM.1 cells transduced with BTK or HCK vectors; assay type: cell-based
Excerpt: as §1

HCK [5] = target: T5, HCK (Homo sapiens, UniProt P08631); assay: Kinase active-site inhibition assay (ATP-biotin probe, western blot) in BCWM.1 cells; assay type: binding; parameters: endogenous in cells; host or cells: BCWM.1 (A3); BCWM.1, MWCL-1, TMD-8 (A8); WM and ABC DLBCL lines and primary WM cells (A12); details: BCWM.1 WM cells, pre-treated 1 hour, various concentrations
Description: as §2

LYN [6] = target: T1, LYN; assay: KiNativ profiling in WM cell lines; assay type: binding; parameters: endogenous in cells; host or cells: BCWM.1 and MWCL-1 WM cell lines; details: for KiNativ profiling, LYN inhibition (labeling site Lys1): 1 μM; for inhibition at 1 µM: read-out: KiNativ profiling, LYN inhibition (labeling site Lys1)
HCK [7] = target: T5, HCK; details: read-out: IC50 kinase activity of HCK; cited from earlier work
CD5+CD19+ PBMC cells = assay: Apoptosis ex vivo in cells from a CLL patient resistant to ibrutinib; assay type: cell-based, human; details: DMSO 11.9%
CD19+ bone marrow cells = assay: Apoptosis by flow cytometry in cells from a WM patient resistant to ibrutinib; assay type: cell-based, human
Description: Apoptosis analysis was performed using Annexin V/Propidium iodide staining with the Apoptosis Detection Kit I (BD Pharmingen, San Jose Calif.). Cells (1×10^6/well) were treated in 24 well plates for 18 hours with inhibitors or corresponding controls. A minimum of 10,000 events were acquired using a BD™ FACSCanto II flow cytometer, and analyzed with BD FACS DIVA Software. For WM patient cells, BMMC (2×10^6/well) were treated with inhibitors, and CD19-APC-cy7 antibody (BD Pharmingen) was used with Annexin V antibody to analyze WM cell apoptosis. AlamarBlue® cell viability assay (Life Technologies, Carlsbad Calif.) was used to assess cell death following inducible HCK knockdown. For these experiments, transduced cells (1×10^5/ml) were cultured with tetracycline, and aliquoted every other day on days 1-11. AlamarBlue® solution ( 1/10 total volume) was added to cells and incubated for 2 hours. Aliquoted plates were read in a SpectraMax M3 plate reader (Molecular Devices, Sunnyvale, Calif.). Relative cell survival was calculated as percentage of fluorescence relative to scrambled control. The CellTiter-Glo® Luminescent cell viability assay (Promega, Madison Wis.) was used to assess the dose-response of inhibitors. […] Luminescent measurement was performed using the 2104 Envision® Multilabel Reader (PerkinElmer Inc.).

| SMILES | KiNativ profiling, FYN, SRC, YES (labeling site Activation Loop) (FYN, SRC, YES; BCWM.1 cells) | KiNativ profiling, FYN, SRC, YES (labeling site Activation Loop) (FYN, SRC, YES; MWCL-1 cells) | blocking of ATP binding to LYN (LYN [2]) | blocking of ATP binding to SRC (SRC) | apoptotic changes [3] | apoptotic activity [4] | change in HCK Tyr411 phosphorylation (HCK (pTyr^411)) | blocking of ATP binding to HCK (HCK [5]) | inhibition at 1 µM (LYN [6]; BCWM.1 cells) [%] | inhibition at 1 µM (LYN [6]; MWCL-1 cells) [%] | other results |
| --- | --- | --- | --- | --- | --- | --- | --- | --- | --- | --- | --- |
| C=CC(=O)Nc1cccc(Nc2nc(Nc3ccc(OCCOC)cc3)ncc2F)c1 [CC-292] | 10.5 | −0.4 | did not block ATP binding to either SRC or LYN | did not block ATP binding to either SRC or LYN | little or no impact on apoptosis | little or no apoptotic activity | little or no impact on HCK Tyr^411 phosphorylation | not CC-292 blocked ATP binding to HCK | – | – | higher EC50 in viability assay ([1]; mutated MYD88 cell lines except OCI-Ly3, 72 hours): > 1 log-fold; potency for tumor cell killing in BTK^C481S expressing cells versus wild-type BTK or control vector (TMD-8 ABC DLBCL cells): decreased the potency; blocking of ATP binding to BTK (BTK): blocked ATP binding to BTK; potency for tumor cell killing in BTK^C481S expressing cells versus wild-type BTK or control vector (BCWM.1 WM cells; BCWM.1 WM cells, FIG. 8A): reduced potency; change in tumor cell killing with HCK^T333M or wild-type HCK (BCWM.1 WM cells; BCWM.1 transduced to express HCK^T333M or wild-type HCK): No substantial change in tumor cell killing; KiNativ profiling, LYN inhibition (labeling site Lys1) (LYN [6]; BCWM.1 cells): 15.7; KiNativ profiling, LYN inhibition (labeling site Lys1) (LYN [6]; MWCL-1 cells): 14.2; IC50 (HCK [7]): 14.6 µM |
| CN1CCN([C@H]2CC[C@H](n3cc(-c4ccc(Oc5ccccc5)cc4)c4c(N)ncnc43)CC2)CC1 [A419259] | >99 | 98.1 | blocked ATP binding to the SRC family members SRC and LYN | blocked ATP binding to the SRC family members SRC and LYN | Increased apoptotic changes | little or no apoptotic activity | reduced HCK Tyr^411 phosphorylation | blocked ATP binding to HCK in a dose-dependent manner | > 99 | > 99 | dose-dependent viability ([1]; 72 hours, more pronounced in mutated MYD88 than MYD88 WT cells): Decreased dose-dependent viability; apoptotic cells (CD5+CD19+ PBMC cells; 0.1 μM): 18.4%; apoptotic cells (CD5+CD19+ PBMC cells; 0.5 μM): 25.6%; apoptotic cells (CD19+ bone marrow cells; 0.1 μM): 20.8%; apoptotic cells (CD19+ bone marrow cells; 0.5 μM): 24.6% |
| C=CC(=O)N1CCC[C@@H](n2nc(-c3ccc(Oc4ccccc4)cc3)c3c(N)ncnc32)C1 [Ibrutinib] | – | – | – | – | – | – | – | – | 60.5 | 80.6 | – |
